# Laboratory results published in the supplement of paper PMC10307832.
# Assays:
# Test in all cases: relative viability (nuclei count vs DMSO), 5 days (fraction); higher = more cells survive
# [1] = compound: C/C(=N\NC(=S)N1CCC1)/C2=CC=CC=N2 + CCNC(=O)c1noc(-c2cc(C(C)C)c(O)cc2O)c1-c1ccc(CN2CCOCC2)cc1 [Luminespib] (partner 0.01 µM)
# How it was run: (§1)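 Relative viability divides the nuclei count in treated wells by that in vehicle wells. Lung cancer cell lines were seeded in 1536-well plates, dosed by pin tool the next day, and fixed and stained after 5 days in one step with final 0.05% Triton X-100, 1% formaldehyde and 1 ug/ml Hoechst. Dosing was a single drug or a fixed anchor-drug dose plus five library-drug doses (not always all listed) in √10 steps, and values are medians of duplicate plates imaged at 4×.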
# [2] = compound: C/C(=N\NC(=S)N1CCC1)/C2=CC=CC=N2 + Cc1cc(Nc2cc(N3CCN(C)CC3)nc(Sc3ccc(NC(=O)C4CC4)cc3)n2)n[nH]1 [Tozasertib] (partner 0.1 µM)
# How it was run: as §1
# [3] = compound: C/C(=N\NC(=S)N1CCC1)/C2=CC=CC=N2 + Cc1nc(NC(=O)N2CCC[C@H]2C(N)=O)sc1-c1ccnc(C(C)(C)C(F)(F)F)c1 [Alpelisib] (partner 2 µM)
# How it was run: as §1
# [4] = compound: C/C(=N\NC(=S)N1CCC1)/C2=CC=CC=N2 + Cc1nc(Nc2ncc(C(=O)Nc3c(C)cccc3Cl)s2)cc(N2CCN(CCO)CC2)n1 [Dasatinib] (partner 0.075 µM)
# How it was run: as §1
Cell Line,relative viability ([1]; first compound 0.05 µM),relative viability ([1]; first compound 0.1581 µM),relative viability ([1]; first compound 0.5 µM),relative viability ([1]; first compound 1.581 µM),relative viability ([1]; first compound 5 µM),relative viability ([2]; first compound 0.05 µM),relative viability ([2]; first compound 0.1581 µM),relative viability ([2]; first compound 0.5 µM),relative viability ([2]; first compound 1.581 µM),relative viability ([2]; first compound 5 µM),relative viability ([3]; first compound 0.05 µM),relative viability ([3]; first compound 0.1581 µM),relative viability ([3]; first compound 0.5 µM),relative viability ([3]; first compound 1.581 µM),relative viability ([3]; first compound 5 µM),relative viability ([4]; first compound 0.05 µM),relative viability ([4]; first compound 0.1581 µM),relative viability ([4]; first compound 0.5 µM),relative viability ([4]; first compound 1.581 µM),relative viability ([4]; first compound 5 µM)
NCI-H358,0.0782,0.118,0.144,0.108,0.0871,0.0651,0.0617,0.0695,0.0742,0.0612,0.196,0.174,0.142,0.118,0.155,0.0836,0.0975,0.102,0.0651,0.092
NCI-H441,0.205,0.158,0.251,0.181,0.164,0.294,0.229,0.159,0.168,0.195,0.159,0.173,0.174,0.166,0.146,0.143,0.15,0.159,0.108,0.156
NCI-H460,0.0193,0.0163,0.025,0.0173,0.0171,0.0816,0.0449,0.0431,0.0348,0.0095,0.0117,0.0186,0.0138,0.0126,0.0076,0.0259,0.0347,0.0269,0.0294,0.0151
NCI-H520,0.194,0.21,0.199,0.21,0.235,0.191,0.241,0.197,0.175,0.269,0.159,0.144,0.124,0.138,0.154,0.175,0.117,0.162,0.178,0.166
NCI-H596,0.433,0.673,0.246,0.222,0.235,0.445,0.34,0.191,0.195,0.2,0.371,0.256,0.267,0.227,0.313,0.234,0.29,0.245,0.224,0.225
NCI-H647,0.0621,0.051,0.0851,0.0853,0.0804,0.0603,0.0452,0.0549,0.0672,0.0612,0.135,0.0873,0.114,0.0898,0.0916,0.0543,0.0651,0.0453,0.051,0.0532
NCI-H650,0.177,0.2,0.198,0.173,0.2,0.184,0.189,0.185,0.158,0.16,0.187,0.252,0.271,0.225,0.169,0.19,0.212,0.191,0.216,0.177
NCI-H661,0.246,0.221,0.212,0.202,0.219,0.239,0.261,0.23,0.235,0.248,0.153,0.268,0.145,0.172,0.202,0.196,0.223,0.197,0.2,0.212
NCI-H727,0.249,0.337,0.294,0.346,0.34,0.28,0.311,0.257,0.159,0.261,0.191,0.152,0.19,0.175,0.147,0.204,0.24,0.236,0.242,0.274
NCI-H838,0.111,0.15,0.132,0.125,0.14,0.148,0.143,0.137,0.133,0.129,0.243,0.211,0.189,0.189,0.172,0.203,0.198,0.223,0.201,0.187
NCI-H1355,0.176,0.179,0.192,0.167,0.173,0.186,0.169,0.17,0.172,0.163,0.205,0.545,0.149,0.145,0.156,0.198,0.194,0.187,0.168,0.15
NCI-H1395,0.305,0.338,0.332,0.349,0.337,0.389,0.347,0.359,0.34,0.328,0.4,0.354,0.423,0.354,0.463,0.27,0.362,0.315,0.29,0.326
NCI-H1437,0.238,0.215,0.216,0.18,0.14,0.144,0.138,0.157,0.133,0.102,0.114,0.127,0.0974,0.0875,0.0851,0.0967,0.128,0.0689,0.0833,0.122
NCI-H1651,0.13,0.157,0.127,0.0971,0.138,0.136,0.114,0.108,0.0885,0.0771,0.149,0.112,0.138,0.0797,0.0683,0.195,0.174,0.126,0.0657,0.0655
NCI-H1666,0.386,0.391,0.347,0.311,0.287,0.35,0.33,0.301,0.3,0.305,0.198,0.208,0.23,0.212,0.224,0.335,0.307,0.301,0.28,0.296
NCI-H1734,0.123,0.105,0.116,0.118,0.117,0.135,0.15,0.152,0.116,0.121,0.169,0.185,0.147,0.135,0.151,0.152,0.12,0.148,0.112,0.089

Cell Line,relative viability ([1]; first compound 0.05 µM),relative viability ([1]; first compound 0.1581 µM),relative viability ([1]; first compound 0.5 µM),relative viability ([1]; first compound 1.581 µM),relative viability ([1]; first compound 5 µM),relative viability ([2]; first compound 0.05 µM),relative viability ([2]; first compound 0.1581 µM),relative viability ([2]; first compound 0.5 µM),relative viability ([2]; first compound 1.581 µM),relative viability ([2]; first compound 5 µM),relative viability ([3]; first compound 0.05 µM),relative viability ([3]; first compound 0.1581 µM),relative viability ([3]; first compound 0.5 µM),relative viability ([3]; first compound 1.581 µM),relative viability ([3]; first compound 5 µM),relative viability ([4]; first compound 0.05 µM),relative viability ([4]; first compound 0.1581 µM),relative viability ([4]; first compound 0.5 µM),relative viability ([4]; first compound 1.581 µM),relative viability ([4]; first compound 5 µM)
NCI-H1755,0.191,0.184,0.198,0.243,0.275,0.465,0.305,0.213,0.278,0.258,0.471,0.834,0.172,0.201,0.187,0.16,0.202,0.157,0.198,0.247
NCI-H1793,0.214,0.142,0.103,0.119,0.141,0.164,0.209,0.152,0.136,0.126,0.245,0.179,0.169,0.168,0.191,0.113,0.145,0.151,0.121,0.145
NCI-H1915,0.126,0.108,0.111,0.121,0.107,0.178,0.137,0.129,0.131,0.139,0.501,1.08,0.174,0.157,0.143,0.117,0.132,0.123,0.115,0.142
NCI-H1944,0.527,0.265,0.143,0.124,0.113,0.248,0.181,0.127,0.0988,0.107,0.669,0.794,0.307,0.191,0.133,0.139,0.151,0.153,0.128,0.127
NCI-H1975,0.118,0.148,0.206,0.107,0.151,0.105,0.0772,0.0873,0.101,0.0836,0.137,0.137,0.123,0.136,0.154,0.104,0.0967,0.0846,0.0879,0.0899
NCI-H1993,0.455,0.496,0.517,0.428,0.509,0.479,0.466,0.449,0.513,0.51,0.67,0.57,0.555,0.505,0.489,0.433,0.525,0.525,0.434,0.435
NCI-H2009,0.128,0.146,0.15,0.186,0.127,0.103,0.148,0.143,0.183,0.149,0.113,0.135,0.15,0.164,0.141,0.112,0.143,0.145,0.122,0.103
NCI-H2023,0.067,0.0631,0.0621,0.0569,0.0694,0.063,0.0672,0.0602,0.0657,0.0603,0.0758,0.0838,0.0704,0.0784,0.0669,0.0588,0.071,0.0685,0.0516,0.0624
NCI-H2085,0.236,0.274,0.281,0.234,0.211,0.372,0.366,0.388,0.315,0.315,0.288,0.27,0.314,0.282,0.272,0.209,0.219,0.27,0.259,0.229
NCI-H2087,0.116,0.0944,0.159,0.142,0.137,0.0992,0.0962,0.114,0.0938,0.0874,0.24,0.196,0.246,0.141,0.151,0.129,0.15,0.15,0.107,0.0833
NCI-H2126,0.201,0.201,0.198,0.178,0.225,0.174,0.167,0.193,0.162,0.19,0.327,0.748,0.224,0.218,0.186,0.185,0.18,0.179,0.163,0.187
NCI-H2170,0.689,0.25,0.136,0.18,0.151,0.659,0.334,0.197,0.113,0.141,0.747,0.731,0.177,0.173,0.17,0.164,0.167,0.145,0.125,0.161
NCI-H2228,0.168,0.119,0.129,–,0.158,0.0977,0.114,0.126,–,0.116,0.154,0.18,0.227,0.124,0.147,0.133,0.121,0.135,–,0.0925
NCI-H2347,0.263,0.238,0.213,0.251,0.235,0.173,0.254,0.177,0.244,0.258,0.312,0.254,0.296,0.274,0.352,0.209,0.199,0.26,0.23,0.179
NCI-H2405,0.218,0.245,0.287,0.242,0.283,0.24,0.286,0.266,0.239,0.253,0.179,0.198,0.276,0.202,0.199,0.219,0.226,0.253,0.228,0.231
NCI-H3122,0.0803,0.063,0.0978,0.134,0.11,0.0931,0.0762,0.0946,0.109,0.0776,0.154,0.133,0.193,0.196,0.192,0.0675,0.0912,0.0839,0.11,0.11
